Results on 13 compounds are retold here after ChEMBL document CHEMBL1201862, “PubChem BioAssay data set” (2004).

Assay in all cases: NCI anticancer screen, dose series, 48 h
Experiment [1] relates to KM12.
Experiment [2] deals with OVCAR-4.
Experiment [3] concerns HOP-92.
Experiment [4] relates to SF-295.
In experiment [5] the test system is M14.
In experiment [6] the test system is SF-268.
Experiment [7] deals with LOX IMVI.
The test system of experiment [8] is SK-OV-3.
Experiment [9] has as its system SK-MEL-28.
For experiment [10], the system named is SNB-75.
Experiment [11] has as its system CAKI-1.
The subject of experiment [12] is MDA-MB-435.
For experiment [13], the system named is OVCAR-8.
Experiment [14] has as its system ACHN.
Experiment [15] concerns SK-MEL-2.
Experiment [16] has as its system UO-31.
In experiment [17] the test system is NCI/ADR-RES.
For experiment [18], the system named is OVCAR-5.
The subject of experiment [19] is A498.

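Dose response: 5 concentrations. Exposure: 48 h. Format: 96-well plates. Endpoint: linear interpolation; highest concentration if not reached. GI50 marks 50% less growth.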 Calls of active or inactive are those of the source. Cut-off read from the data, not from the text of the source: active = GI50 up to about 1.1 µM and inactive = higher.

Consider `COc1c(F)c(F)c(C(=O)/C=C2\Nc3ccccc3NC2=O)c(F)c1F`, for which the GI50 in experiment [1] is 8.22 µM (inactive); in experiment [2], 2.48 µM (inactive); in experiment [3], > 10 µM (inactive); in [4] it was 5.52 µM (inactive); in experiment [5], > 10 µM (inactive); in experiment [6], 9.1 µM (inactive). Besides, the GI50 in experiment [7] is 2.89 µM (inactive); in [8], 4.57 µM (inactive); in experiment [9] it was 6.81 µM (inactive); in experiment [10], 2.25 µM (inactive); in experiment [11], > 10 µM (inactive); in experiment [12] it was > 10 µM (inactive). Besides, the GI50 in experiment [13] was 3.79 µM (inactive).

For `CC(C)[Si]1(C(C)C)OCC2OC3(CO)C(Oc4nc(=O)ccn43)C2O[Si](C(C)C)(C(C)C)O1` (stereo not given), the GI50 was 13.3 µM (inactive) in experiment [1]; 15.5 µM (inactive) in [14]; 13.1 µM (inactive) in [2]; 16.5 µM (inactive) in [3]; 16.3 µM (inactive) in experiment [15]; 15 µM (inactive) in experiment [4]. Further, the GI50 was 14.8 µM (inactive) in [5]; 17 µM (inactive) in experiment [6]; 15 µM (inactive) in experiment [7]; 20 µM (inactive) in experiment [8]; 13.9 µM (inactive) in experiment [16]; 15 µM (inactive) in experiment [9]. Moreover, the GI50 was 15 µM (inactive) in [10]; 15.7 µM (inactive) in experiment [11]; 17.4 µM (inactive) in [17]; 15 µM (inactive) in [12]; 14.1 µM (inactive) in experiment [13].

Take `c1ccc(CN2CCC3(CC2)SSC2(CCN(Cc4ccccc4)CC2)S3)cc1`: the GI50 was 45.3 µM (inactive) in experiment [1]; > 100 µM (inactive) in experiment [14]; 52.4 µM (inactive) in [2]; 85.3 µM (inactive) in experiment [18]; > 100 µM (inactive) in [3]; 76.7 µM (inactive) in experiment [15]. For the same compound, the GI50 in experiment [4] was 26.5 µM (inactive); in [5] it was 66.5 µM (inactive); in [7], 48.8 µM (inactive); in experiment [8] it was > 100 µM (inactive); in [16], > 100 µM (inactive); in experiment [9] it was 44 µM (inactive). The GI50 is > 100 µM (inactive) in [10]; 26.9 µM (inactive) in [11]; > 100 µM (inactive) in [17]; 31.3 µM (inactive) in experiment [12]; > 100 µM (inactive) in experiment [13].

`N#CCC12CC=CCC1=C(O)C(=O)c1ccc(O)cc12` (stereo not given): the GI50 in [1] was > 100 µM (inactive); in [14], > 100 µM (inactive); in experiment [2] it was 52 µM (inactive); in experiment [18], > 100 µM (inactive); in experiment [15] it was > 100 µM (inactive); in experiment [4] it was > 100 µM (inactive). Moreover, the GI50 is 55.7 µM (inactive) in [5]; > 100 µM (inactive) in [6]; > 100 µM (inactive) in [19]; > 100 µM (inactive) in experiment [7]; > 100 µM (inactive) in [8]; 48.6 µM (inactive) in experiment [16]. The GI50 in experiment [9] is > 100 µM (inactive); in experiment [10] it was 67.6 µM (inactive); in experiment [11], > 100 µM (inactive); in experiment [17] it was > 100 µM (inactive); in [12] it was > 100 µM (inactive); in experiment [13] it was > 100 µM (inactive).

In the case of `Clc1cc(Cl)ncn1`, the GI50 in experiment [1], in [14], in experiment [2], in experiment [18], in experiment [3] and in experiment [4] was > 100 µM (inactive) in each case. The GI50 in [5], in experiment [6], in experiment [7], in experiment [8], in experiment [16] and in experiment [9] was > 100 µM (inactive) in each case. The GI50 in experiment [10], in experiment [11], in experiment [17], in [12] and in experiment [13] was > 100 µM (inactive) throughout.

For the compound `O=C(OCc1ccccc1)C1(N2CN(C3(C(=O)OCc4ccccc4)CCCC3)CN(C3(C(=O)OCc4ccccc4)CCCC3)C2)CCCC1`, the GI50 in experiment [1], in experiment [14], in experiment [2], in experiment [18], in experiment [3] and in experiment [15] was > 10 µM (inactive) in each case. Also, the GI50 in [4], in experiment [5], in [6], in [7], in [8] and in [16] was > 10 µM (inactive) each time. In addition, the GI50 in experiment [9], in experiment [10], in [11], in experiment [17], in experiment [12] and in [13] was > 10 µM (inactive) throughout.

For the compound `O=[N+]([O-])C(=C(N1CCOCC1)N1CCOCC1)/C(Cl)=C(\Cl)Br`, the GI50 is 31.4 µM (inactive) in experiment [1]; 24.8 µM (inactive) in [14]; 18.4 µM (inactive) in experiment [2]; 17.1 µM (inactive) in experiment [18]; 16.2 µM (inactive) in experiment [3]; 21.8 µM (inactive) in experiment [15]. The GI50 in experiment [4] was > 100 µM (inactive); in experiment [5] it was 13.4 µM (inactive); in [6], 23.6 µM (inactive); in experiment [19] it was 37.4 µM (inactive); in experiment [7], 19.3 µM (inactive); in experiment [16], 18.4 µM (inactive). The GI50 in experiment [9] is 17.4 µM (inactive); in experiment [10], 17.5 µM (inactive); in experiment [17], 22.2 µM (inactive); in [13], 24.1 µM (inactive).

Consider `CCOC(=O)CCC(=O)C1c2cccc(O)c2C(=O)c2c(O)cccc21`, for which the GI50 in [1] is 0.652 µM (active); in experiment [14] it was 1.43 µM (inactive); in experiment [2], 0.611 µM (active); in [18], 1.75 µM (inactive); in experiment [3] it was 1.49 µM (inactive); in [4] it was 0.644 µM (active). The GI50 is 0.566 µM (active) in experiment [5]; 0.908 µM (active) in [6]; 0.604 µM (active) in experiment [7]; 0.356 µM (active) in [16]; 1.33 µM (inactive) in experiment [9]; 0.877 µM (active) in experiment [10]. The GI50 is 2.36 µM (inactive) in experiment [11] and 1.58 µM (inactive) in experiment [13].

Regarding `Cc1nn(C(=O)Cc2ccccc2)c2c1C(c1ccc([N+](=O)[O-])cc1)SC(=N)N2` (stereo not given), the GI50 in experiment [1], in experiment [14], in experiment [4], in experiment [5], in experiment [6] and in [19] was > 100 µM (inactive) in each case. The GI50 in experiment [7], in experiment [8], in [9], in [11], in experiment [12] and in experiment [13] was > 100 µM (inactive) throughout.

On to `NC1Cc2ccccc2OC1=O` (stereo not given), for which the GI50 in [1], in [14], in experiment [18], in [15], in experiment [4] and in [5] was > 100 µM (inactive) in each case. The GI50 in experiment [6], in [8], in [16], in experiment [9], in experiment [10] and in experiment [11] was > 100 µM (inactive) each time. The GI50 in experiment [17], in experiment [12] and in [13] was > 100 µM (inactive) throughout.

As for `CN(C)Cc1cc(C(C)(C)C)cc(C2CCCCC2)c1O`, the GI50 was 13.6 µM (inactive) in [1]; 15.5 µM (inactive) in experiment [14]; 12.1 µM (inactive) in experiment [2]; 17 µM (inactive) in [18]; 18.3 µM (inactive) in experiment [15]; 24.6 µM (inactive) in experiment [5]. Moreover, the GI50 was 16.8 µM (inactive) in experiment [6]; 15.2 µM (inactive) in [7]; 15 µM (inactive) in experiment [8]; 17.7 µM (inactive) in experiment [16]; 13.2 µM (inactive) in [9]; 10.3 µM (inactive) in experiment [10]. Besides, the GI50 in experiment [11] was 19.9 µM (inactive); in experiment [17], 19.6 µM (inactive); in experiment [12], 20.3 µM (inactive); in experiment [13], 13 µM (inactive).

Turning to `NC(=S)NC/C=C/Cl`, the GI50 in [1], in experiment [14], in experiment [2], in experiment [18], in [3] and in experiment [15] was > 100 µM (inactive) in each case. Further, the GI50 in [4], in experiment [5], in [7], in experiment [8], in experiment [16] and in [10] was > 100 µM (inactive) throughout. Besides, the GI50 in experiment [11], in experiment [17], in experiment [12] and in experiment [13] was > 100 µM (inactive) in each case.

For the compound `CN(C)CCNc1ccc([N+](=O)[O-])c2sc3ccccc3c(=O)c12`, the GI50 in experiment [1] was 5.19 µM (inactive); in [14], 2.51 µM (inactive); in experiment [2], 3.1 µM (inactive); in [18], 3.03 µM (inactive); in experiment [3], 3.84 µM (inactive); in experiment [15], 14.1 µM (inactive). For the same compound, the GI50 in experiment [4] was 4.24 µM (inactive); in experiment [5] it was 6.71 µM (inactive); in [6], 4.21 µM (inactive); in experiment [8], 7.71 µM (inactive); in [16], 4.34 µM (inactive); in experiment [9], 7.08 µM (inactive). Moreover, the GI50 is 4.68 µM (inactive) in [10], 3.44 µM (inactive) in experiment [17], 5.19 µM (inactive) in experiment [12] and 3.63 µM (inactive) in experiment [13].
